Legend:
glucocerebrosidase = biological target: T1, glucocerebrosidase (Homo sapiens, UniProt P04062); experiment: Kinetics of hydrolysis of glucosylated precursors by glucocerebrosidase of a stratum corneum extract; format: biochemical; conditions: for Quantity of molecule released: phthalate buffer pH 5.6, 24 hours incubation, freeze-dried cutaneous extract, three strippings of 15 cm^2; for Release of the active agent from its glucosylated precursor: from the glucopyranoside precursor
T1 construct: a freeze-dried cutaneous extract obtained after taking a sample by three successive strippings of 15 cm^2; from tissue; host or cells: stratum corneum (powdered, freeze-dried cutaneous extract from three successive strippings)
T1 sequence (P04062 40-536): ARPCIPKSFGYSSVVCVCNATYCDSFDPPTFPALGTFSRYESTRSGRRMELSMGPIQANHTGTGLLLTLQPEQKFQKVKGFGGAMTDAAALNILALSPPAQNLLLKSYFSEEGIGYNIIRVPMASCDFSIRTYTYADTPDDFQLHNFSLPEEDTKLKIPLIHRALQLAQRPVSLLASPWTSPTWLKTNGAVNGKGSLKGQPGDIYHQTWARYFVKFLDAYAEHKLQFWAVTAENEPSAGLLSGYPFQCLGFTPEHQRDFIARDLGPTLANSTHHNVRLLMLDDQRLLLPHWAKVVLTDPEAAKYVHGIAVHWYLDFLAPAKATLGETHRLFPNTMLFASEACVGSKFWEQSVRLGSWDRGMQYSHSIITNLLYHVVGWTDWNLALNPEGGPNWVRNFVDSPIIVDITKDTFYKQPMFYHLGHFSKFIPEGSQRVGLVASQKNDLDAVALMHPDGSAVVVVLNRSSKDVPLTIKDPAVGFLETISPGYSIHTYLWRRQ
Protocol: The precursor and the stratum corneum sample in powdered form are incorporated into a liquid medium buffered with a phthalate buffer at pH 5.6. The mixture is incubated for 24 hours and the quantity of active agent released is assayed by densitometry on a thin-layer chromatography plate.
The following table gives, for various glucosylated precursors, the quantity of molecule released following their hydrolysis by glucocerebrosidase over 24 hours by a freeze-dried cutaneous extract obtained after taking a sample by three successive strippings of 15 cm^2.

[1] = Nonirradiated; cream containing 0.4%
Text: The photostability of delta-tocopheryl-glucopyranoside and that of delta-tocopherol are compared.
Samples of a cream containing 0.4% of delta-tocopheryl-glucopyranoside or of delta-tocopherol are irradiated with a 28 J/cm^2 incident light of 290 to 800 nm (5 DEM).

[2] = Antioxidant activity against the peroxidation of squalene, MDA as indicator
Protocol: (§1) The concentration of MDA released is measured by complexing with thiobarbituric acid in an acidic medium. The chromogenic complex formed absorbs at 532 nm. Its quantification is monitored by fluorimetry.
The antioxidant activity of various compounds against the peroxidation of an unsaturated lipid, squalene, is measured.

[3] = MDA released in a cream with borage oil containing vitamin E after two hour solar exposure (thiobarbituric acid complex); conditions: for Concentration of MDA released: two hour solar exposure
Protocol: The concentration of malonaldehyde (MDA) released in a cream containing increasing quantities of an antioxidant, vitamin E (or alpha-tocopherol), which is subjected to an oxidative stress, is measured.
The cream containing vitamin E also contains borage oil which is naturally rich in linoleic acid. Oxidative stress consists in a two hour solar exposure.
as §1

Compound | Quantity of molecule released (glucocerebrosidase) | Quantity of MDA released [2] | other results
Cc1cc(=O)oc2cc(OC3O[C@H](CO)[C@@H](O)[C@H](O)[C@H]3O)ccc12 (stereo partly shown) [4-methylumbelliferyl-glucopyranoside, 4-methylumbelliferyl glucopyranoside] | 100 ± 7 n mol/hour | – | –
Cc1cc(O)cc2c1O[C@](C)(CCC[C@H](C)CCC[C@H](C)CCCC(C)C)CC2 [Delta-tocopherol, delta-tocopherol] | – | 7.2 ± 1.7 μg MDA | Amount of compound in the cream [1]: 310 ± 14 Micromoles
Cc1cc(O[C@@H]2O[C@H](CO)[C@@H](O)[C@H](O)[C@H]2O)cc2c1O[C@](C)(CCC[C@H](C)CCC[C@H](C)CCCC(C)C)CC2 [Delta-tocopherol-glucopyranoside] | 14.3 ± 1 n mol/hour | 128 ± 38 μg MDA | Amount of compound in the cream [1]: 311 ± 7 Micromoles
OC[C@H]1OC(Oc2ccccc2)[C@H](O)[C@@H](O)[C@@H]1O (stereo partly shown) [Phenylglucopyranoside] | 0.2 ± 0.5 n mol/hour | – | –
CC(C)CCCC(C)CCCC(C)CCCC1(C)CCc2cc(OC3OC(CO)C(O)C(O)C3O)ccc2O1 (stereo not shown) [Tocol-glucopyranoside, tocol-glucopyranoside] | 14.8 ± 1.2 n mol/hour | 142 ± 28 μg MDA | –
CC(C)CCCC(C)CCCC(C)CCCC1(C)CCc2cc(O)ccc2O1 (stereo not shown) [Tocol] | – | 6 ± 1.9 μg MDA | –
CCCCCCCCCCCCCCCC(=O)Oc1c(C)c(C)c2c(c1C)CCC(C)(CCCC(C)CCCC(C)CCCC(C)C)O2 (stereo not drawn) [Vitamin E palmitate, alpha-tocopherol palmitate] | – | 182.7 ± 39 μg MDA | –
Cc1c(C)c2c(c(C)c1O)CC[C@@](C)(CCC[C@H](C)CCC[C@H](C)CCCC(C)C)O2 [vitamin E, alpha-tocopherol] | – | – | Release of the active agent from its glucosylated precursor (glucocerebrosidase): not released; Concentration of MDA released ([3]; 0.05 % by mass vitamin E in the cream): 1.2 ± 0.15 μg MDA/100 mg cream; Concentration of MDA released ([3]; 0.1 % by mass vitamin E in the cream): 1.9 ± 0.20 μg MDA/100 mg cream; Concentration of MDA released ([3]; 0.15 % by mass vitamin E in the cream): 2.0 ± 0.20 μg MDA/100 mg cream; Pro-inflammatory effect ([3]; cream rich in polyunsaturated fatty acid): causes a pro-inflammatory effect
Cc1c(C)c2c(c(C)c1OC1O[C@H](CO)[C@@H](O)[C@H](O)[C@H]1O)CCC(C)(CCCC(C)CCCC(C)CCCC(C)C)O2 (stereo partly drawn) [α-Tocopheryl-glucopyranoside] | 0 n mol/hour | – | –
Cc1c(OC2O[C@H](CO)[C@@H](O)[C@H](O)[C@H]2O)cc2c(c1C)OC(C)(CCCC(C)CCCC(C)CCCC(C)C)CC2 (stereo partly shown) [γ-Tocopheryl-glucopyranoside] | 0 n mol/hour | – | –
Cc1c(O)cc2c(c1C)O[C@](C)(CCC[C@H](C)CCC[C@H](C)CCCC(C)C)CC2 [γ-tocopherol] | – | – | Release of the active agent from its glucosylated precursor (glucocerebrosidase): not released

— patent US6569906B1, “Composition containing a precursor capable of being hydrolysed by glucocerebrosidase” (Pierre Fabre Dermo-Cosmetique, priority 1998, dated 2003)
